Read-outs that look alike come from different tables or passages of the source.
Columns and labels:
[1] = test system: Pseudomonas aeruginosa strain PA01; experiment: Bacterial killing curves with and without 10% cystic fibrosis patient sputum; format: cell-based
Procedure: Bacterial killing curves with BisEDT and BisBDT were performed in the presence of […] cystic fibrosis patient sputum in order to determine whether the test compounds are potentially inactivated by sputum. The assay is described in King P, Lomovskaya O, Griffith D C, Burns J L, Dudley M N. In vitro pharmacodynamics of levofloxacin and other aerosolized antibiotics under multiple conditions relevant to chronic pulmonary infection in cystic fibrosis. Antimicrob Agents Chemother, 54:143-8, 2010.
Sputum was collected from cystic fibrosis (CF) patient volunteers without recent antibiotic exposure after appropriate IRB approval. Sputum was sterilized by UV irradiation and sterilization was confirmed by culture. An overnight culture of Pseudomonas aeruginosa strain PA01 was used to inoculate fresh cultures in cation-adjusted Mueller-Hinton broth or cation-adjusted Mueller-Hinton broth plus 10% CF patient sputum. Drugs were added to individual culture tubes with and without sputum at the following final concentrations: • BisEDT: 0.1 μg/mL, 2 μg/mL, and 20 μg/mL • BisBDT: 0.1 μg/mL. 4 μg/mL, and 20 μg/mL
Tobramycin at 1 μg/mL was used as a comparator drug control known to be partially inactivated by patient sputum. Cultures were incubated with shaking at 37° C. and aliquots were removed every hour for quantitation of colony forming units per mL (CFU/mL) by serial dilution and plating on tryptic soy agar for a total of 6 hours. CFU were counted after incubation of the plates overnight at 37° C.

[2] = BisEDT single-dose rat PK studies comparing inhalation, IV and oral dosing; format: in vivo
Procedure: Based on existing in vivo and in vitro toxicology data as well as rat PK and in vitro MIC data, BisEDT suspension for inhalation can be reliably administered at doses providing efficacious lung levels that are tolerated, and it is therefore a viable clinical development candidate. […] 24 hours after single inhalation dose 4,093 ng/g was measured in the lung tissue (which equates to 123 μg/mL in lung fluid) and 4 days (96 hrs) after single dose 2,600 ng/g in lung tissue (which equates to 78 μg/mL in lung fluid). Without being bound by any particular theory, it is believed BisEDT's low solubility provides slow dissolution and long exposure on lung surface fluids with limited systemic exposure via diffusion through lung epithelium. The lung appears to act as a depot for slow systemic exposure with about 10× lower systemic levels than seen in the lung. The terminal phase of the IV data appears to show slow elimination after initial tissue distribution (FIG. 10).

[3] = Nose-only inhalation exposure in F344 rats: whole blood and lung BisEDT concentration (ICP-MS bismuth as surrogate); format: in vivo; conditions: rat; for concentration at 8 h: nominal time 8 hr; for concentration at 12 h: nominal time 12 hr; for concentration at 24 h: nominal time 24 hr; for concentration at 30 h: nominal time 30 hr
Procedure: Inhalation Exposure: The initial exposure of BisEDT (Bismuth-1,2-ethanedithiol) was formulated as a solution at 100 mg/mL in suspension in 0.5% Tween 80, 10 mM sodium phosphate, pH 7.4, in NaCl (adjusted to approximately 300 mOsm). Aerosols were generated with a commercial compressed air jet nebulizer, Pad LC Plus, operated with an inlet pressure of 20 psi. The aerosols were transitioned into a rodent nose-only inhalation exposure system. The exposure system was operated with an inlet air flow of […] and an exhaust air flow of −5 L/min.
Detailed gross necropsies were performed on all animals (found dead, moribund, or scheduled necropsy) and consisted of a complete external and internal examination including body orifices and cranial, thoracic, and abdominal organs and tissues. All gross findings will be recorded in descriptive terms. […] Lungs collected and weighed.
Tables 6 and 7 below show whole blood BisEDT versus time data and lung BisEDT concentration at sacrifice time data respectively.

[4] = both sexes, F344, whole blood, inhaled, single inhalation dose 47 μg/kg, read-out: Whole blood Mean BisEDT Conc
[5] = both sexes, F344, whole blood, inhaled, single inhalation dose 124 μg/kg, read-out: Whole blood Mean BisEDT Conc
[6] = both sexes, F344, whole blood, inhaled, single inhalation dose 400 μg/kg, read-out: Whole blood Mean BisEDT Conc
[7] = both sexes, F344, whole blood, inhaled, single inhalation dose 3000 μg/kg, read-out: Whole blood Mean BisEDT Conc

With `NC[C@H]1O[C@H](O[C@H]2[C@H](O)[C@@H](O[C@H]3O[C@H](CO)[C@@H](O)[C@H](N)[C@H]3O)[C@H](N)C[C@@H]2N)[C@H](N)C[C@@H]1O` [tobramycin, reference compound] the “CFU higher in cultures with sputum compared to cultures without sputum” value ([1]; tobramycin 1 μg/mL, 10% CF patient sputum, most time points) was 0.5-1 log CFU/mL.
For `C1C[S][Bi]([S]CC[S][Bi]2[S]CC[S]2)[S]1` [BisEDT, Bismuth-1,2-ethanedithiol], the “Bactericidal activity against PA01 at 0.1 μg/mL” value ([1]; 0.1 μg/mL, 6 hour assay) was “not bactericidal”, the “Effect of CF patient sputum on bactericidal activity” value ([1]; 10% CF patient sputum in cation-adjusted Mueller-Hinton broth) was “partially inhibited” and the “Bactericidal activity against Pseudomonas aeruginosa strain PA01 in this assay” value ([1]; overall conclusion of killing curves) was “bactericidal”. For the same molecule, the Tolerability ([2]; 100 μg/kg inhalation and IV and 250 μg/kg oral, single dose) was “tolerated”, the “Systemic levels lower than seen in the lung (fold)” value ([2]; after inhalation dosing) was “about 10 ×” and the “Duration of initial distribution into tissues after IV dosing (biphasic pattern)” value ([2]; single 100 μg/kg IV dose) was 18 h. For the same molecule, the “Half-life of lung levels after IV dosing” value ([2]; single 100 μg/kg IV dose) was “about 24 hour”, the “Lung levels after IV dosing vs inhalation group” value ([2]; single 100 μg/kg IV dose) was under 5% and the “Blood exposure after inhalation dosing” value ([2]; single 100 μg/kg inhalation dose) was “sustained, moderate, blood exposure with relatively stable concentrations across time”. For the same molecule, the “Blood concentrations after oral dosing” value ([2]; single 250 μg/kg oral dose) was “very low, but sustained and measurable”, the “Lung levels after oral dosing” value ([2]; single 250 μg/kg oral dose) was “no lung levels” and the “Half-life in lung tissue after inhalation dosing” value ([2]; single inhalation dose (100 μg/kg lung deposited)) was “about 4 days”. It also gave a concentration at 8 h [3, 4] of 114 ng/mL, a concentration at 12 h [3, 4] of 98 ng/mL and a concentration at 24 h [3, 4] of 282 ng/mL. For the same molecule, the concentration at 30 h [3, 4] was 373 ng/mL, the concentration at 8 h [3, 5] was 247 ng/mL and the concentration at 12 h [3, 5] was 187 ng/mL. The concentration at 24 h [3, 5] was 571 ng/mL, the concentration at 30 h [3, 5] was 668 ng/mL and the concentration at 8 h [3, 6] was 1700 ng/mL. It also gave a concentration at 12 h [3, 6] of 1250 ng/mL, a concentration at 24 h [3, 6] of 2700 ng/mL and a concentration at 30 h [3, 6] of 2740 ng/mL. The concentration at 1 h ([3]; both sexes, F344, whole blood, inhaled, single inhalation dose 3000 μg/kg, nominal time 1 hr, read-out: Whole blood Mean BisEDT Conc) was 485 ng/mL, the concentration at 2 h ([3]; both sexes, F344, whole blood, inhaled, single inhalation dose 3000 μg/kg, nominal time 2 hr, read-out: Whole blood Mean BisEDT Conc) was 2500 ng/mL and the concentration at 8 h [3, 7] was 6570 ng/mL. For the same molecule, the concentration at 24 h [3, 7] was 20500 ng/mL, the “Lung Mean BisEDT Conc at sacrifice” value ([3]; single inhalation dose 47 μg/kg, sac time 30 hr) was 4.8 ng/g and the “Lung Mean BisEDT Conc at sacrifice” value ([3]; single inhalation dose 124 μg/kg, sac time 30 hr) was 5.9 ng/g. The “Lung Mean BisEDT Conc at sacrifice” value ([3]; single inhalation dose 400 μg/kg, sac time 30 hr) was 12.1 ng/g and the “Lung Mean BisEDT Conc at sacrifice” value ([3]; single inhalation dose 3000 μg/kg, sac time 24 hr) was 82.3 ng/g.

Reference: US20250002514A1, “AMORPHOUS FORM OF BISMUTH-1,2-ETHANEDITHIOL AND METHODS OF MAKING” (Microbion Corporation, priority 2021, published 2025)
